In the NIST ThermoML archive (doi:10.1007/s10765-010-0766-0):
Numbers after ± are expanded uncertainties.

Conditions: Liquid, Pycnometric method

FC(F)C(F)(F)OCC(F)(F)F [2,2,2-trifluoroethyl 1,1,2,2-tetrafluoroethyl ether]
Conditions	mass density [kg/m3]
279.15 K, 5663 kPa	1535.2 ± 2.5
280.15 K, 6663 kPa	1534.9 ± 2.5
280.15 K, 6673 kPa	1534.9 ± 2.5
281.15 K, 7673 kPa	1534.6 ± 2.5
281.15 K, 7685 kPa	1534.7 ± 2.5
282.15 K, 8685 kPa	1534.4 ± 2.5
282.15 K, 8696 kPa	1534.5 ± 2.5
283.15 K, 9695 kPa	1534.2 ± 2.5
283.15 K, 9705 kPa	1534.3 ± 2.5
284.15 K, 10704 kPa	1534 ± 2.5
284.15 K, 10712 kPa	1534 ± 2.5
285.15 K, 11710 kPa	1533.8 ± 2.5
285.15 K, 11717 kPa	1533.8 ± 2.5
286.15 K, 12714 kPa	1533.6 ± 2.5
286.15 K, 12720 kPa	1533.6 ± 2.5
287.15 K, 13718 kPa	1533.4 ± 2.5
287.15 K, 13722 kPa	1533.4 ± 2.5
288.15 K, 14719 kPa	1533.2 ± 2.5
288.15 K, 14722 kPa	1533.2 ± 2.5
289.15 K, 15719 kPa	1533 ± 2.5
289.15 K, 15720 kPa	1533 ± 2.5
290.15 K, 16716 kPa	1532.8 ± 2.5
290.15 K, 16717 kPa	1532.8 ± 2.5
291.15 K, 17711 kPa	1532.6 ± 2.5
291.15 K, 17712 kPa	1532.6 ± 2.5
292.15 K, 18703 kPa	1532.5 ± 2.5
292.15 K, 18704 kPa	1532.4 ± 2.5
293.15 K, 19694 kPa	1532.3 ± 2.5
294.15 K, 20683 kPa	1532.1 ± 2.5
295.15 K, 21669 kPa	1531.9 ± 2.5
296.15 K, 22653 kPa	1531.8 ± 2.5
296.15 K, 22654 kPa	1531.8 ± 2.5
297.15 K, 23636 kPa	1531.6 ± 2.5
298.15 K, 24616 kPa	1531.4 ± 2.5
298.15 K, 24617 kPa	1531.4 ± 2.5
299.15 K, 25595 kPa	1531.3 ± 2.5
299.15 K, 25596 kPa	1531.3 ± 2.5
300.15 K, 26572 kPa	1531.1 ± 2.5
300.15 K, 26573 kPa	1531.1 ± 2.5
301.15 K, 6294 kPa	1484.4 ± 2.4
301.15 K, 27548 kPa	1531 ± 2.5
302.15 K, 7147 kPa	1484.2 ± 2.4
302.15 K, 28521 kPa	1530.9 ± 2.5
302.15 K, 28522 kPa	1530.9 ± 2.5
303.15 K, 8010 kPa	1484 ± 2.4
303.15 K, 8015 kPa	1484 ± 2.4
303.15 K, 29493 kPa	1530.7 ± 2.5
304.15 K, 8873 kPa	1483.8 ± 2.4
304.15 K, 8874 kPa	1483.8 ± 2.4
305.15 K, 9734 kPa	1483.6 ± 2.4
306.15 K, 10592 kPa	1483.4 ± 2.4
306.15 K, 10594 kPa	1483.4 ± 2.4
307.15 K, 11449 kPa	1483.2 ± 2.4
307.15 K, 11452 kPa	1483.2 ± 2.4
308.15 K, 12303 kPa	1483 ± 2.4
308.15 K, 12308 kPa	1483.1 ± 2.4
309.15 K, 13157 kPa	1482.8 ± 2.4
309.15 K, 13163 kPa	1482.9 ± 2.4
310.15 K, 14009 kPa	1482.7 ± 2.4
310.15 K, 14016 kPa	1482.7 ± 2.4
311.15 K, 14859 kPa	1482.5 ± 2.4
311.15 K, 14867 kPa	1482.5 ± 2.4
312.15 K, 15708 kPa	1482.3 ± 2.4
312.15 K, 15718 kPa	1482.4 ± 2.4
313.15 K, 16557 kPa	1482.1 ± 2.4
313.15 K, 16566 kPa	1482.2 ± 2.4
314.15 K, 17405 kPa	1482 ± 2.4
314.15 K, 17414 kPa	1482 ± 2.4
315.15 K, 18252 kPa	1481.8 ± 2.4
315.15 K, 18260 kPa	1481.8 ± 2.4
316.15 K, 19097 kPa	1481.7 ± 2.4
316.15 K, 19105 kPa	1481.7 ± 2.4
317.15 K, 19942 kPa	1481.5 ± 2.4
317.15 K, 19949 kPa	1481.5 ± 2.4
318.15 K, 20785 kPa	1481.4 ± 2.4
318.15 K, 20791 kPa	1481.4 ± 2.4
319.15 K, 21626 kPa	1481.2 ± 2.4
319.15 K, 21632 kPa	1481.2 ± 2.4
320.15 K, 22467 kPa	1481.1 ± 2.4
320.15 K, 22471 kPa	1481.1 ± 2.4
321.15 K, 23306 kPa	1480.9 ± 2.4
321.15 K, 23311 kPa	1480.9 ± 2.4
322.15 K, 24144 kPa	1480.8 ± 2.4
322.15 K, 24148 kPa	1480.8 ± 2.4
323.15 K, 24980 kPa	1480.6 ± 2.4
323.15 K, 24983 kPa	1480.6 ± 2.4
324.15 K, 25816 kPa	1480.5 ± 2.4
324.15 K, 25819 kPa	1480.5 ± 2.4
325.15 K, 26650 kPa	1480.4 ± 2.4
325.15 K, 26653 kPa	1480.4 ± 2.4
326.15 K, 27482 kPa	1480.2 ± 2.4
326.15 K, 27484 kPa	1480.2 ± 2.4
327.15 K, 28313 kPa	1480.1 ± 2.4
327.15 K, 28315 kPa	1480.1 ± 2.4
328.15 K, 29144 kPa	1480 ± 2.4
328.15 K, 29145 kPa	1480 ± 2.4
329.15 K, 7678 kPa	1420.3 ± 2.3
329.15 K, 7689 kPa	1420.3 ± 2.3
329.15 K, 29973 kPa	1479.9 ± 2.4
329.15 K, 29975 kPa	1479.9 ± 2.4
330.15 K, 8385 kPa	1420.1 ± 2.3
330.15 K, 8394 kPa	1420.1 ± 2.3
331.15 K, 9091 kPa	1420 ± 2.3
331.15 K, 9099 kPa	1419.9 ± 2.3
332.15 K, 9796 kPa	1419.8 ± 2.3
332.15 K, 9803 kPa	1419.8 ± 2.3
333.15 K, 10500 kPa	1419.6 ± 2.3
333.15 K, 10506 kPa	1419.6 ± 2.3
334.15 K, 11204 kPa	1419.5 ± 2.3
334.15 K, 11209 kPa	1419.5 ± 2.3
335.15 K, 11908 kPa	1419.3 ± 2.3
335.15 K, 11912 kPa	1419.3 ± 2.3
336.15 K, 12610 kPa	1419.2 ± 2.3
336.15 K, 12614 kPa	1419.1 ± 2.3
337.15 K, 13313 kPa	1419 ± 2.3
337.15 K, 13315 kPa	1419 ± 2.3
338.15 K, 14014 kPa	1418.8 ± 2.3
338.15 K, 14016 kPa	1418.8 ± 2.3
339.15 K, 14714 kPa	1418.7 ± 2.3
339.15 K, 14716 kPa	1418.7 ± 2.3
340.15 K, 15413 kPa	1418.5 ± 2.3
340.15 K, 15416 kPa	1418.5 ± 2.3
341.15 K, 16111 kPa	1418.4 ± 2.3
341.15 K, 16114 kPa	1418.4 ± 2.3
